Drawing on ChEMBL document CHEMBL1811789, “Synthesis and biological evaluation of (±)-benzhydrol derivatives as potent non-nucleoside HIV-1 reverse transcriptase inhibitors” (Bioorg Med Chem, 2011), this text covers EC50, CC50 and selectivity ratio for 22 compounds.

Series [1] relates to Human immunodeficiency virus 1. Put plainly: Antiviral activity against wild type HIV1 3B infected in human C8166 cells assessed as inhibition of viral-induced cytopathogenicity after 3 days by syncytium formation assay. It is filed as functional, organism-based. The conditions noted are these: Human immunodeficiency virus 1, 3B, C8166, 72 h. (Cytopathic effects are the visible damage that an infection or toxin causes in cultured cells.)

Series [2] deals with Human immunodeficiency virus 1. Put plainly: Antiviral activity against […] HIV1 A17 harboring reverse transcriptase K103N and Y181C mutant infected in human C8166 cells assessed as inhibition of viral-induced cytopathogenicity after 3 days by syncytium formation assay. It is filed as functional, organism-based. Conditions: Human immunodeficiency virus 1, A17, C8166, 72 h.
A short description of series [3]: Cytotoxicity against human C8166 cells by MTT assay. It is filed as cell-based. Background: Tetrazolium dyes change colour on reduction, which living cells bring about.
The nature of series [4]: Selectivity index, ratio of CC50 for human C8166 cells to EC50 for wild type HIV1 3B. The conditions noted are these: read-out: Ratio CC50/EC50. It is filed as toxicity, cell-based.

As usually defined, the EC50 is the concentration needed to bring the measured effect to its halfway point. The CC50 is the concentration giving 50% cytotoxicity.

With `Cc1cc(S(N)(=O)=O)ccc1NC(=O)COc1ccc(Cl)cc1C(=O)c1cc(Cl)cc(C#N)c1`, the EC50 in series [1] turned out to be 0.00069 µM; in series [2] it was 0.0014 µM. For the same compound, in series [3], the CC50 was > 387 µM. Moreover, the selectivity ratio in series [4] was > 563000.

Regarding `Cc1cc(S(N)(=O)=O)ccc1NC(=O)COc1ccc(Cl)cc1C(O)c1ccc(Cl)cc1Cl` (racemic), the EC50 was 2.92 µM in series [1] and 33.6 µM in series [2]. In addition, the CC50 in series [3] worked out at 39.9 µM. In series [4], the selectivity ratio stood at 13.7.

In the case of `Cc1cc(S(N)(=O)=O)ccc1NC(=O)COc1ccc(Cl)cc1C(O)c1ccccc1` (racemic), the EC50 in series [1] stood at 1.12 µM; in series [2], 16.5 µM. Further, half-maximal cytotoxicity in series [3] (CC50) was put at 33.4 µM. For the same compound, in series [4], the selectivity ratio was 29.9.

As for `Cc1cc(S(N)(=O)=O)ccc1NC(=O)COc1ccc(Cl)cc1C(O)c1ccccc1C` (racemic), the values for the EC50 in series [1] and in series [2] were 1.21 µM and 20.8 µM, respectively. This compound yielded a CC50 in series [3] of 33.9 µM. Besides, the selectivity ratio in series [4] stood at 28.

Take `Cc1cccc(C(O)c2cc(Cl)ccc2OCC(=O)Nc2ccc(S(N)(=O)=O)cc2C)c1` (racemic): the EC50 in series [1] is 0.48 µM; in series [2] it was 9.7 µM. Half-maximal cytotoxicity in series [3] (CC50) was put at 33.1 µM. For the same compound, the selectivity ratio in series [4] was 69.

`Cc1ccc(C(O)c2cc(Cl)ccc2OCC(=O)Nc2ccc(S(N)(=O)=O)cc2C)cc1` (racemic): the values for the EC50 in series [1] and in series [2] were 0.65 µM and 13.4 µM, respectively. In series [3], this compound registered a CC50 of 38.7 µM. Moreover, in series [4], the selectivity ratio is 59.3.

Take `Cc1cc(S(N)(=O)=O)ccc1NC(=O)COc1ccc(Cl)cc1C(O)c1ccccc1Cl` (racemic): the figures for the EC50 in series [1] and in series [2] were 1.3 µM and 20.4 µM, respectively. Also, the 50% cytotoxic concentration (CC50) in series [3] is 32 µM. Moreover, the selectivity ratio in series [4] came out at 24.6.

In the case of `Cc1cc(S(N)(=O)=O)ccc1NC(=O)COc1ccc(Cl)cc1C(O)c1cccc(Cl)c1` (racemic), the EC50 in series [1] came out at 0.72 µM; in series [2], 13 µM. Also, in series [3], half-maximal cytotoxicity (CC50) was put at 33.2 µM. Further, the selectivity ratio in series [4] was determined as 46.4.

With `Cc1cc(S(N)(=O)=O)ccc1NC(=O)COc1ccc(Cl)cc1C(O)c1cccc(F)c1` (racemic), the EC50 in series [1] stood at 0.48 µM; in series [2] it was 6.61 µM. In addition, the CC50 in series [3] amounted to 37.6 µM. Moreover, in series [4], the selectivity ratio worked out at 78.5.

Regarding `Cc1cc(S(N)(=O)=O)ccc1NC(=O)COc1ccc(Cl)cc1C(O)c1cccc([N+](=O)[O-])c1` (racemic), the EC50 in series [1] came to 0.12 µM; in series [2], 4.34 µM. It took 36.9 µM to reach half-maximal cytotoxicity in series [3] (CC50). Also, in series [4], the selectivity ratio came out at 313.

As to `Cc1cc(S(N)(=O)=O)ccc1NC(=O)COc1ccc(Cl)cc1C(O)c1cccc(C)c1C` (racemic), the EC50 amounted to 9.02 µM in series [1] and 216 µM in series [2]. In series [3], the midpoint of cytotoxicity, the CC50, lay at 218 µM. For the same compound, the selectivity ratio in series [4] is 24.1.

Turning to `Cc1ccc(C(O)c2cc(Cl)ccc2OCC(=O)Nc2ccc(S(N)(=O)=O)cc2C)c(C)c1` (racemic), the EC50 in series [1] was found to be 4.27 µM; in series [2] it was 40.4 µM. The CC50 in series [3] was 26.4 µM. Also, in series [4], the selectivity ratio amounted to 6.18.

Consider `Cc1ccc(C)c(C(O)c2cc(Cl)ccc2OCC(=O)Nc2ccc(S(N)(=O)=O)cc2C)c1` (racemic), for which the figures for the EC50 in series [1] and in series [2] were 0.81 µM and 14.3 µM, respectively. Half-maximal cytotoxicity in series [3] (CC50) was put at 35.5 µM. For the same compound, in series [4], the selectivity ratio was determined as 43.7.

For `Cc1cc(C)cc(C(O)c2cc(Cl)ccc2OCC(=O)Nc2ccc(S(N)(=O)=O)cc2C)c1` (racemic), the EC50 in series [1] amounted to 0.18 µM; in series [2], 2.08 µM. In series [3], the CC50 worked out at 29.4 µM. Moreover, the selectivity ratio in series [4] amounted to 166.

In the case of `Cc1cc(S(N)(=O)=O)ccc1NC(=O)COc1ccc(Cl)cc1C(O)c1cc(Cl)ccc1Cl` (racemic), the EC50 in series [1] turned out to be 1.06 µM; in series [2], 9.58 µM. This compound also gave a CC50 in series [3] of 36.2 µM. In series [4], the selectivity ratio is 34.2.

For `Cc1cc(S(N)(=O)=O)ccc1NC(=O)COc1ccc(Cl)cc1C(O)c1ccc(Cl)c(Cl)c1` (racemic), the EC50 in series [1] is 2.15 µM; in series [2] it was 31.6 µM. In series [3], it took 24 µM to reach half-maximal cytotoxicity (CC50). The selectivity ratio in series [4] was 11.2.

As to `Cc1cc(S(N)(=O)=O)ccc1NC(=O)COc1ccc(Cl)cc1C(O)c1cc(Cl)cc(Cl)c1` (racemic), the values for the EC50 in series [1] and in series [2] were 1.06 µM and 9.45 µM, respectively. In series [3], the half-maximal cytotoxic concentration (CC50) turned out to be 13.1 µM. Further, in series [4], the selectivity ratio stood at 12.4.

For `Cc1cc(S(N)(=O)=O)ccc1NC(=O)COc1ccc(Cl)cc1C(O)c1cc(Cl)cc(Br)c1` (racemic), the EC50 in series [1] was 0.54 µM; in series [2], 7.79 µM. Moreover, the CC50 in series [3] turned out to be 22.9 µM. The selectivity ratio in series [4] turned out to be 42.4.

With `Cc1cc(S(N)(=O)=O)ccc1NC(=O)COc1ccc(Cl)cc1C(O)c1cc(Cl)cc(C#N)c1` (racemic), the EC50 amounted to 0.39 µM in series [1] and 6.84 µM in series [2]. In addition, the CC50 in series [3] is 31.6 µM. The selectivity ratio in series [4] came to 80.8.

Take `Cc1cc(S(N)(=O)=O)ccc1NC(=O)COc1ccc(Cl)cc1C(O)c1cccc2ccccc12` (racemic): the EC50 came out at 0.39 µM in series [1] and 8.47 µM in series [2]. In series [3], this compound displayed a CC50 of 31.1 µM. The selectivity ratio in series [4] came out at 80.1.

Regarding `Cc1cc(S(N)(=O)=O)ccc1NC(=O)COc1ccc(Cl)cc1C(O)c1ccc2ccccc2c1` (racemic), the EC50 in series [1] came out at 1.09 µM; in series [2] it was 10.7 µM. In series [3], this compound had a CC50 of 15.7 µM. The selectivity ratio in series [4] is 14.3.

Regarding `Cc1cn([C@H]2C[C@H](N=[N+]=[N-])[C@@H](CO)O2)c(=O)[nH]c1=O` [ZIDOVUDINE], the EC50 in series [2] worked out at 0.023 µM. In addition, the selectivity ratio in series [4] is 422000.
